“Also recorded” adds a separate entry of the source.
Legend:
[1] = system: ASD-related symptoms; conditions: cited from earlier work
[2] = system: FOCM/TS metabolic profiles of individuals with ASD; assay: FDA model evaluation of clinical trial treatment data (Type II error and discriminant score shift); format: in vivo, children; conditions: for Post-treatment Type II Error: PDF of post-treatment discriminant scores with respect to H0, 12 weeks (BH4: average of 8 and 16 weeks); for change in Type II error / correction of metabolic abnormalities (in words): comparison among treatments; for Effect Size (95% CI): median paired pre-to-post-treatment change in discriminant score, CI by bootstrap, 10,000 replications; for Change in Type II Error: pre- to post-treatment, with respect to H0
Description: MeCbl+LDFA Treatment Data. Subcutaneously injected MeCbl (75 μg/kg, once every three days) in combination with oral LDFA (400 μg, twice per day) was given to children with autism in a 12-week open-label trial. Included children were aged 2 to 7 years and met the diagnostic criteria for autism as defined by the DSM-IV in addition to having a Childhood Autism Rating Scales score greater than 30. Boys and girls made up 82% and 18% of participants in this study, respectively. The IRB at the University of Arkansas for Medical Sciences approved the protocol for this study.
BH4 Treatment Data. A 16-week open-label trial investigated the effects of orally administered BH4 (20 mg/kg, once per day) in children aged 2 to 6 years old with a previous diagnosis of ASD that was confirmed at the time of evaluation with DSM-IV criteria. […] Study participants were 90% males. Approval for this study was given by the IRB at the University of Texas Health Science Center at Houston, Tex. FOCM/TS markers were measured at 8 and 16 weeks following the onset of treatment in this trial; to maintain consistency with the other trials where markers were measured after 12 weeks, the averages of the measurements taken at 8 and 16 weeks were used.
HDFA Treatment Data. A double-blind placebo-controlled trial of HDFA (2 mg/kg per day up to a maximum of 50 mg daily, given orally) was administered over 12 weeks to children between 3 and 14 years of age. ASD diagnoses were made using the Autism Diagnostic Observation Schedule and/or Autism Diagnostic Interview—Revised, or by agreement between physician, psychologist, and speech therapist, or by a physician's diagnosis according to the Diagnostic and Statistical Manual of Mental Disorders, Fifth Edition with later confirmation by the investigators. All children were required to have documented language impairment. 78% of the treatment group were male while 80% of the placebo group were male. The protocol was approved by the IRB at the University of Arkansas for Medical Sciences. All data for participants receiving a placebo in the current analysis were provided.
Biochemical Measurements. Concentrations and ratios of metabolites in the FOCM and TS pathways were measured in each of the above studies, with fifteen measurements appearing in all four data sets. Six of these measures were associated with DNA methylation: methionine, S-adenosylmethionine (SAM), S-adenosylhomocysteine (SAH), the SAM/SAH ratio (an indicator of DNA methylation capacity), homocysteine, and adenosine. The remaining nine measures were precursors of glutathione or markers of redox metabolism: total cysteine, glutamylcysteine (Glu-Cys), cysteinylglycine (Cys-Gly), total and free reduced glutathione (tGSH and fGSH, respectively), oxidized glutathione (GSSG), the ratios of total and free reduced glutathione to oxidized glutathione (tGSH/GSSG and fGSH/GSSG, respectively; these are indicators of intracellular oxidative stress), and percent oxidized glutathione (a derived measure calculated as 2GSSG/[GSH+2GSSG]).
Fisher Discriminant Analysis. Individuals of the IMAGE study were separated into ASD and TD cohorts using Fisher discriminant analysis (FDA). FDA used the data matrix X of size n×m as input, where n study participants are each defined by m biochemical measurements. Sample information for study participant i was contained in row vector xi (size 1×m) and that participant's value for measurement j is indicated by xi,j. The input matrix X were considered as two matrices XASD and XTD taken to represent the separate samples for the ASD and TD cohorts, respectively, with XASD composed of nASD samples and XTD having nTD samples. […]

| Compound | outcome of open-label and double-blind placebo-controlled studies ([1]; children with ASD) | Post-treatment Type II Error [2] [%] | 95% CI for the effect size relative to zero (in words) ([2]; bootstrap 95% CI of median change in discriminant score) | change in Type II error / correction of metabolic abnormalities (in words) [2] | Effect Size (95% CI) [2] | Change in Type II Error [2] | outcome of treatment (cerebrospinal fluid, symptoms and behavior) ([1]; ASD) |
| --- | --- | --- | --- | --- | --- | --- | --- |
| C/C1=C2/[N-][C@H]([C@H](CC(N)=O)[C@@]2(C)CCC(=O)NC[C@@H](C)OP(=O)([O-])O[C@H]2[C@@H](O)[C@@H](n3cnc4cc(C)c(C)cc43)O[C@@H]2CO)[C@]2(C)N=C(/C(C)=C3N=C(/C=C4N=C1[C@@H](CCC(N)=O)C\4(C)C)[C@@H](CCC(N)=O)[C@]\3(C)CC(N)=O)[C@@H](CCC(N)=O)[C@]2(C)CC(N)=O.[CH3-].[Co+3] [MeCbl, methylcobalamin] | improvement in metabolism and ASD-related symptoms |  |  |  |  |  |  |
| Nc1nc(=O)c2c([nH]1)NCC(CNc1ccc(C(=O)N[C@@H](CCC(=O)O)C(=O)O)cc1)N2C=O (mixture of isomers) [HDFA, high-dose folinic acid] |  | 49.5 | contained zero | relatively small increase in Type II error | 0.17 | +17.2% |  |
| methylcobalamin (MeCbl) in combination with low-dose folinic acid (LDFA) [MeCbl + LDFA] |  | 43.6 |  | greatest correction in ASD-related metabolic abnormalities; also recorded: largest increase in Type II error | 0.89 | +41.9% |  |
| C[C@H](O)[C@H](O)[C@H]1CNc2nc(N)[nH]c(=O)c2N1 [BH4, tetrahydrobiopterin] |  | 41.1 |  |  | 0.73 | +40.8% |  |
| Nc1nc(=O)c2c([nH]1)NCC(CNc1ccc(C(=O)N[C@@H](CCC(=O)O)C(=O)O)cc1)N2C=O (mixture of isomers) [folinic acid, Folinic acid] |  |  |  |  |  |  | correct certain abnormalities of the cerebrospinal fluid and improve ASD-related symptoms and behavior |

— patent US11699530B2, “Use of multivariate analysis to assess treatment approaches” (RENSSELAER POLYTECHNIC INSTITUTE, priority 2018, dated 2023)
